From patent US20170121322A1, “BET-PROTEIN INHIBITING 3,4-DIHYDROPYRIDO[2,3-B]PYRAZINONES WITH META-SUBSTITUTED AROMATIC AMINO- OR ETHER GROUPS” (Bayer Pharma Aktiengesellschaft, priority 2014, published 2017)

These compounds were tested against T1, BRD4 bromo domain 2 [BRD4(2)] (Homo sapiens, UniProt O60885) (assay: BRD4(2)/acetylated peptide H4 TR-FRET binding assay). Conditions: His6-BRD4(2) (aa 357-445) vs acetylated histone H4 peptide.
T1 construct: N-terminally His6-tagged BRD4(2) (amino acids 357-445); made in house; host or cells: E. coli
From the text: To assess the BRD4(2) binding strength of the substances described in this application, the ability thereof to inhibit the interaction between BRD4(2) and acetylated histone H4 in a dose-dependent manner was quantified.
For this purpose, a time-resolved fluorescence resonance energy transfer (TR-FRET) assay was used, which measures the binding between N-terminally His6-tagged BRD4(2) (amino acids 357-445) and a synthetic acetylated histone H4 (Ac-H4) peptide with sequence SGRGK(Ac)GGK(Ac)GLGK(Ac)GGAK(Ac)RHRKVLRDNGSGSK-biotin. The recombinant BRD4(2) protein produced in-house according to Filippakopoulos et al., Cell, 2012, 149:214-231 was expressed in E. coli and purified by means of (Ni-NTA) affinity and (Sephadex G-75) size exclusion chromatography. The Ac-H4 peptide can be purchased, for example, from Biosyntan (Berlin, Germany).
In the assay, typically 11 different concentrations of each substance (0.1 nM, 0.33 nM, 1.1 nM, 3.8 nM, 13 nM, 44 nM, 0.15 μM, 0.51 μM, 1.7 μM, 5.9 μM and 20 μM) were analysed as duplicates on the same microtitre plate. For this purpose, 100-fold concentrated solutions in DMSO were prepared by serial dilutions (1:3.4) of a 2 mM stock solution into a clear, 384-well microtitre plate (Greiner Bio-One, Frickenhausen, Germany). From this, 50 nl were transferred into a black test plate (Greiner Bio-One, Frickenhausen, Germany). The test was started by the addition of 2 μl of a 2.5-fold concentrated BRD4(2) solution (final concentration typically 100 nM in the 5 μl of reaction volume) in aqueous assay buffer [50 mM HEPES pH 7.5, 50 mM sodium chloride (NaCl); 50 mM potassium fluoride (KF); 0.25 mM CHAPS and 0.05% serum albumin (BSA)] to the substances in the test plate. This was followed by a 10-minute incubation step at 22° C. for the pre-equilibration of putative complexes between BRD4(2) and the substances.
The mixture was then incubated in the dark at 22° C. for one hour and then at 4° C. for at least 3 hours and for no longer than overnight. The formation of BRD4(2)/Ac-H4 complexes was determined by the measurement of the resonance energy transfer from the streptavidin-Eu chelate to the anti-6His-XL665 antibody present in the reaction. For this purpose, the fluorescence emission was measured at 620 nm and 665 nm after excitation at 330-350 nm in a TR-FRET measuring instrument, for example a Rubystar or Pherastar (both from BMG Lab Technologies, Offenburg, Germany) or a Viewlux (Perkin-Elmer). The ratio of the emissions at 665 nm and at 622 nm was taken as an indicator of the amount of BRD4(2)/Ac-H4 complexes formed.
The data (ratios) obtained were normalized, with 0% inhibition corresponding to the mean from the measurements for a set of controls (typically 32 data points) in which all the reagents were present. In these, in place of test substances, 50 nl of DMSO (100%) were used. Inhibition of 100% corresponded to the mean from the measurements for a set of controls (typically 32 data points) in which all the reagents except BRD4(2) were present. The IC50 was determined by regression analysis based on a 4-parameter equation (minimum, maximum, IC50, Hill; Y=Max+(Min−Max)/(1+(X/IC50)Hill)).

Row | IC50 | Compound
1 | 62 nM | COc1ccc(S(=O)(=O)C(C)C)cc1Nc1ccc2c(n1)N(C1CCN(C)CC1)[C@H](C)C(=O)N2C [Example 13, (3R)-6-{[5-(Isopropylsulphonyl)-2-methoxyphenyl]amino}-1,3-dimethyl-4-(1-methylpiperidin-4-yl)-3,4-dihydropyrido[2,3-b]pyrazin-2(1H)-one]
2 | 76 nM | COc1ccc(S(C)(=O)=O)cc1Nc1ccc2c(n1)N(C(C)C)[C@H](C)C(=O)N2C [Example 14, (3R)-4-Isopropyl-6-{[2-methoxy-5-(methylsulphonyl)phenyl]amino}-1,3-dimethyl-3,4-dihydropyrido[2,3-b]pyrazin-2(1H)-one]
3 | 49 nM | COc1ccc(S(=O)(=O)C2CC2)cc1Nc1ccc2c(n1)N(C(C)C)[C@H](C)C(=O)N2C [Example 15, (3R)-6-{[5-(Cyclopropylsulphonyl)-2-methoxyphenyl]amino}-4-isopropyl-1,3-dimethyl-3,4-dihydropyrido[2,3-b]pyrazin-2(1H)-one]
4 | 33 nM | COc1ccc(S(=O)(=O)C(C)C)cc1Nc1ccc2c(n1)N(C(C)C)[C@H](C)C(=O)N2C [Example 16, (3R)-4-Isopropyl-6-{[5-(isopropylsulphonyl)-2-methoxyphenyl]amino}-1,3-dimethyl-3,4-dihydropyrido[2,3-b]pyrazin-2(1H)-one]
5 | 212 nM | CC1C(=O)N(C)c2ccc(Nc3cccc(S(C)(=O)=O)c3)nc2N1c1ccccc1 (centres unmarked) [Example 17, 1,3-Dimethyl-6-{[3-(methylsulphonyl)phenyl]amino}-4-phenyl-3,4-dihydropyrido[2,3-b]pyrazin-2(1H)-one]
6 | 47 nM | CC(C)S(=O)(=O)c1cccc(Nc2ccc3c(n2)N(C2CCN(C)CC2)[C@H](C)C(=O)N3C)c1 [Example 19, (3R)-6-{[3-(Isopropylsulphonyl)phenyl]amino}-1,3-dimethyl-4-(1-methylpiperidin-4-yl)-3,4-dihydropyrido[2,3-b]pyrazin-2(1H)-one]
7 | 65 nM | CC(C)S(=O)(=O)c1ccc(OC(F)(F)F)c(Nc2ccc3c(n2)N(C2CCN(C)CC2)[C@H](C)C(=O)N3C)c1 [Example 20, (3R)-6-{[5-(Isopropylsulphonyl)-2-(trifluoromethoxy)phenyl]amino}-1,3-dimethyl-4-(1-methylpiperidin-4-yl)-3,4-dihydropyrido[2,3-b]pyrazin-2(1H)-one]
8 | 58 nM | COc1ccc(S(=O)(=O)C(F)(F)F)cc1Nc1ccc2c(n1)N(C1CCN(C)CC1)[C@H](C)C(=O)N2C [Example 21, (3R)-6-({2-Methoxy-5-[(trifluoromethyl)sulphonyl]phenyl}amino)-1,3-dimethyl-4-(1-methylpiperidin-4-yl)-3,4-dihydropyrido[2,3-b]pyrazin-2(1H)-one]
9 | 54 nM | COc1ccc(S(=O)(=O)C2CCOCC2)cc1Nc1ccc2c(n1)N(C1CCN(C)CC1)[C@H](C)C(=O)N2C [Example 22, (3R)-6-{[2-Methoxy-5-(tetrahydro-2H-pyran-4-ylsulphonyl)phenyl]amino}-1,3-dimethyl-4-(1-methylpiperidin-4-yl)-3,4-dihydropyrido[2,3-b]pyrazin-2(1H)-one]
10 | 52 nM | COc1ccc(S(=O)(=O)C(C)C)cc1Nc1ccc2c(n1)N(C1CCNCC1)[C@H](C)C(=O)N2C [Example 26, (3R)-6-{[5-(Isopropylsulphonyl)-2-methoxyphenyl]amino}-1,3-dimethyl-4-(piperidin-4-yl)-3,4-dihydropyrido[2,3-b]pyrazin-2(1H)-one]
11 | 83 nM | COc1ccc(S(C)(=O)=O)cc1Nc1ccc2c(n1)N(C1CCNCC1)[C@H](C)C(=O)N2C [Example 27, (3R)-6-{[2-Methoxy-5-(methylsulphonyl)phenyl]amino}-1,3-dimethyl-4-(piperidin-4-yl)-3,4-dihydropyrido[2,3-b]pyrazin-2(1H)-one]

More lines, now with the values behind:

Row | Compound | IC50
12 | CCOC(=O)N=S(C)(=O)c1cccc(Nc2ccc3c(n2)N(C2CCOCC2)[C@H](C)C(=O)N3C)c1 (mixture of isomers) [Example 10, Ethyl [(3-{[(3R)-1,3-dimethyl-2-oxo-4-(tetrahydro-2H-pyran-4-yl)-1,2,3,4-tetrahydropyrido[2,3-b]pyrazin-6-yl]amino}phenyl)(methyl)oxido-λ^6-sulphanylidene]carbamate] | 6120 nM
13 | C[C@@H]1C(=O)N(C)c2ccc(Nc3cccc(S(C)(=O)=O)c3)nc2N1C1CCOCC1 [Example 1, (3R)-1,3-Dimethyl-6-{[3-(methylsulphonyl)phenyl]amino}-4-(tetrahydro-2H-pyran-4-yl)-3,4-dihydropyrido[2,3-b]pyrazin-2(1H)-one] | 121 nM
14 | Cc1ccc(S(C)(=O)=O)cc1Nc1ccc2c(n1)N(C1CCOCC1)[C@H](C)C(=O)N2C [Example 2, (3R)-1,3-Dimethyl-6-{[2-methyl-5-(methylsulphonyl)phenyl]amino}-4-(tetrahydro-2H-pyran-4-yl)-3,4-dihydropyrido[2,3-b]pyrazin-2(1H)-one] | 173 nM
15 | COc1ccc(S(C)(=O)=O)cc1Nc1ccc2c(n1)N(C1CCOCC1)[C@H](C)C(=O)N2C [Example 3, (3R)-6-{[2-Methoxy-5-(methylsulphonyl)phenyl]amino}-1,3-dimethyl-4-(tetrahydro-2H-pyran-4-yl)-3,4-dihydropyrido[2,3-b]pyrazin-2(1H)-one] | 58 nM
16 | C[C@@H]1C(=O)N(C)c2ccc(Nc3ccc4c(c3)S(=O)(=O)CC4)nc2N1C1CCOCC1 [Example 4, (3R)-6-[(1,1-Dioxido-2,3-dihydro-1-benzothiophen-6-yl)amino]-1,3-dimethyl-4-(tetrahydro-2H-pyran-4-yl)-3,4-dihydropyrido[2,3-b]pyrazin-2(1H)-one] | 64 nM
17 | C[C@@H]1C(=O)N(C)c2ccc(Nc3cccc(S(C)(=O)=O)c3)nc2N1C1CCCCCC1 [Example 5, (3R)-4-Cycloheptyl-1,3-dimethyl-6-{[3-(methylsulphonyl)phenyl]amino}-3,4-dihydropyrido[2,3-b]pyrazin-2(1H)-one] | 96 nM
18 | C[C@@H]1C(=O)N(C)c2ccc(Nc3cccc(S(=O)(=O)C4CC4)c3)nc2N1C1CCOCC1 [Example 6, (3R)-6-{[3-(Cyclopropylsulphonyl)phenyl]amino}-1,3-dimethyl-4-(tetrahydro-2H-pyran-4-yl)-3,4-dihydropyrido[2,3-b]pyrazin-2(1H)-one] | 40 nM
19 | CC(C)S(=O)(=O)c1cccc(Nc2ccc3c(n2)N(C2CCOCC2)[C@H](C)C(=O)N3C)c1 [Example 7, (3R)-6-{[3-(Isopropylsulphonyl)phenyl]amino}-1,3-dimethyl-4-(tetrahydro-2H-pyran-4-yl)-3,4-dihydropyrido[2,3-b]pyrazin-2(1H)-one] | 44 nM
20 | COc1ccc(S(=O)(=O)C2CC2)cc1Nc1ccc2c(n1)N(C1CCOCC1)[C@H](C)C(=O)N2C [Example 8, (3R)-6-{[5-(Cyclopropylsulphonyl)-2-methoxyphenyl]amino}-1,3-dimethyl-4-(tetrahydro-2H-pyran-4-yl)-3,4-dihydropyrido[2,3-b]pyrazin-2(1H)-one] | 49 nM
21 | COc1ccc(S(=O)(=O)C(C)C)cc1Nc1ccc2c(n1)N(C1CCOCC1)[C@H](C)C(=O)N2C [Example 9, (3R)-6-{[5-(Isopropylsulphonyl)-2-methoxyphenyl]amino}-1,3-dimethyl-4-(tetrahydro-2H-pyran-4-yl)-3,4-dihydropyrido[2,3-b]pyrazin-2(1H)-one] | 53 nM
22 | C[C@@H]1C(=O)N(C)c2ccc(Nc3cccc(S(C)(=O)=O)c3)nc2N1C1CCN(C)CC1 [Example 11, (3R)-1,3-Dimethyl-4-(1-methylpiperidin-4-yl)-6-{[3-(methylsulphonyl)phenyl]amino}-3,4-dihydropyrido[2,3-b]pyrazin-2(1H)-one] | 75 nM
23 | COc1ccc(S(=O)(=O)C2CC2)cc1Nc1ccc2c(n1)N(C1CCN(C)CC1)[C@H](C)C(=O)N2C [Example 12, (3R)-6-{[5-(Cyclopropylsulphonyl)-2-methoxyphenyl]amino}-1,3-dimethyl-4-(1-methylpiperidin-4-yl)-3,4-dihydropyrido[2,3-b]pyrazin-2(1H)-one] | 67 nM
